Tests used:
Experiment in all cases: cells
Assay type in all cases: cell-based, human
MOLT-3 cell line = system: MOLT-3 cell line
KOPN8 cell line = system: KOPN8 cell line
TIB-202 cell line = system: TIB-202 cell line
B1 cell line = system: B1 cell line
SEM cell line = system: SEM cell line

Row | Compound | IC50 (MOLT-3 cell line; Homo sapiens, MOLT-3, 96 h) | IC50 (KOPN8 cell line; Homo sapiens, KOPN-8, 96 h) | IC50 (TIB-202 cell line; Homo sapiens, 96 h) | IC50 (B1 cell line; Homo sapiens, 96 h) | IC50 (SEM cell line; Homo sapiens, 96 h) | IC50 (MOLT-3 cell line; Table S1, MOLT-3, 96 hours) | IC50 (KOPN8 cell line; Table S1, KOPN8, 96 hours) | IC50 (TIB-202 cell line; Table S1, TIB-202, 96 hours) | IC50 (B1 cell line; Table S1, B1, 96 hours) | IC50 (SEM cell line; Table S1, SEM, 96 hours) | IC50 (KOPN8 cell line; Homo sapiens, KOPN-8)
1 | OC[C@H]1O[C@@H](n2cnc3c2NC=NC[C@H]3O)C[C@@H]1O [Pentostatin] | > 10 µM | > 5 µM | > 5 µM | > 10 µM | > 10 µM | – | – | – | – | – | –
2 | CN(C)c1nc(N(C)C)nc(N(C)C)n1 [Altretamine] | > 10 µM | > 10 µM | > 10 µM | > 10 µM | > 10 µM | – | – | – | – | – | –
3 | NC(=O)NO [Hydroxyurea] | – | – | – | – | – | > 10 µM | > 5 µM | > 5 µM | > 10 µM | > 10 µM | –
4 | CC(C)C[C@H](NC(=O)[C@H](Cc1ccccc1)NC(=O)c1cnccn1)B(O)O [Bortezomib] | > 10 µM | < 0.01 µM | 0.00571 µM | 0.00397 µM | < 0.01 µM | – | – | – | – | – | –
5 | C[C@]12CC[C@@H]3c4ccc(O)cc4C[C@@H](CCCCCCCCC[S+]([O-])CCCC(F)(F)C(F)(F)F)[C@H]3[C@@H]1CC[C@@H]2O (some centres unmarked) [Fulvestrant] | > 10 µM | 7.64 µM | > 10 µM | > 10 µM | > 10 µM | – | – | – | – | – | –
6 | CN(C)/N=N/c1[nH]cnc1C(N)=O [Dacarbazine] | > 10 µM | > 10 µM | > 10 µM | > 10 µM | > 10 µM | – | – | – | – | – | –
7 | CS(=O)(=O)CCNCc1ccc(-c2ccc3ncnc(Nc4ccc(OCc5cccc(F)c5)c(Cl)c4)c3c2)o1 [Lapatinib] | > 10 µM | 5.2 µM | 7.42 µM | 5.7 µM | 4.73 µM | – | – | – | – | – | –
8 | S=P(N1CC1)(N1CC1)N1CC1 [Thiotepa] | 3.01 µM | 1.96 µM | 5 µM | 6.38 µM | 3.78 µM | – | – | – | – | – | –
9 | O=P(O)(O)C(O)(Cn1ccnc1)P(=O)(O)O [Zoledronic acid] | > 10 µM | > 10 µM | > 10 µM | > 10 µM | > 10 µM | – | – | – | – | – | –
10 | CCN(CC)CCCC(C)Nc1c2ccc(Cl)cc2nc2ccc(OC)cc12 (centres unmarked) [Acrichine] | 4.07 µM | – | 4.5 µM | 4.63 µM | 6.4 µM | – | – | – | – | – | 0.722 µM
11 | Nc1ncn([C@@H]2O[C@H](CO)[C@@H](O)[C@H]2O)c(=O)n1 [Azacitidine] | 6.21 µM | 0.836 µM | 5.2 µM | 5.07 µM | 1.3 µM | – | – | – | – | – | –
12 | O=c1[nH]cc(F)c(=O)[nH]1 [Fluorouracil] | 7.11 µM | > 5 µM | > 5 µM | > 10 µM | > 10 µM | – | – | – | – | – | –
13 | Oc1ncnc2[nH]ncc12 [Allopurinol] | > 10 µM | > 5 µM | > 5 µM | > 10 µM | > 10 µM | – | – | – | – | – | –
14 | NCCCNCCSP(=O)(O)O [Amifostine] | > 10 µM | > 10 µM | > 10 µM | > 10 µM | > 10 µM | – | – | – | – | – | –
15 | CN(N=O)C(=O)N[C@@H](C=O)[C@@H](O)[C@H](O)[C@H](O)CO [Streptozocin] | > 10 µM | > 5 µM | > 5 µM | > 10 µM | > 10 µM | – | – | – | – | – | –
16 | CCc1c2c(nc3ccc(OC(=O)N4CCC(N5CCCCC5)CC4)cc13)-c1cc3c(c(=O)n1C2)COC(=O)[C@]3(O)CC [Irinotecan] | 3.92 µM | 1.69 µM | 2.53 µM | 2.29 µM | 3.4 µM | – | – | – | – | – | –
17 | CCN(CC)CCNC(=O)c1c(C)[nH]c(/C=C2\C(=O)Nc3ccc(F)cc32)c1C [Sunitinib] | > 10 µM | 3.3 µM | 3.29 µM | 5.36 µM | 0.135 µM | – | – | – | – | – | –
18 | N#Cc1ccc(C(c2ccc(C#N)cc2)n2cncn2)cc1 [Letrozole] | > 10 µM | > 10 µM | > 10 µM | > 10 µM | > 10 µM | – | – | – | – | – | –
19 | O=C1CCC(N2C(=O)c3ccccc3C2=O)C(=O)N1 (centres unmarked) [Thalidomide] | > 10 µM | > 5 µM | > 5 µM | > 10 µM | > 10 µM | – | – | – | – | – | –
20 | O=C(c1ccc(OCCN2CCCCC2)cc1)c1c(-c2ccc(O)cc2)sc2cc(O)ccc12 [Raloxifene] | > 10 µM | 8.3 µM | > 10 µM | > 10 µM | 4.44 µM | – | – | – | – | – | –
21 | Nc1cccc2c1CN(C1CCC(=O)NC1=O)C2=O (centres unmarked) [Lenalidomide] | 10 µM | > 10 µM | > 10 µM | > 10 µM | > 10 µM | – | – | – | – | – | –
22 | C[C@]12CC[C@@H]3c4ccc(OC(=O)N(CCCl)CCCl)cc4CC[C@H]3[C@@H]1CC[C@@H]2O [Estramustine] | > 10 µM | > 10 µM | > 10 µM | > 10 µM | > 10 µM | – | – | – | – | – | –
23 | CNNCc1ccc(C(=O)NC(C)C)cc1 [Procarbazine] | > 10 µM | > 5 µM | > 5 µM | > 10 µM | > 10 µM | – | – | – | – | – | –

Row | Compound | IC50 (MOLT-3 cell line; Homo sapiens, MOLT-3, 96 h) | IC50 (KOPN8 cell line; Homo sapiens, KOPN-8, 96 h) | IC50 (TIB-202 cell line; Homo sapiens, 96 h) | IC50 (B1 cell line; Homo sapiens, 96 h) | IC50 (SEM cell line; Homo sapiens, 96 h) | IC50 (MOLT-3 cell line; Table S1, MOLT-3, 96 hours) | IC50 (KOPN8 cell line; Table S1, KOPN8, 96 hours) | IC50 (TIB-202 cell line; Table S1, TIB-202, 96 hours) | IC50 (B1 cell line; Table S1, B1, 96 hours) | IC50 (SEM cell line; Table S1, SEM, 96 hours) | IC50 (KOPN8 cell line; Homo sapiens, KOPN-8)
24 | CO[C@H]1C[C@@H]2CC[C@@H](C)[C@@](O)(O2)C(=O)C(=O)N2CCCC[C@H]2C(=O)O[C@H]([C@H](C)C[C@@H]2CC[C@@H](O)[C@H](OC)C2)CC(=O)[C@H](C)/C=C(\C)[C@@H](O)[C@@H](OC)C(=O)[C@H](C)C[C@H](C)/C=C/C=C/C=C/1C [Rapamycin] | < 0.01 µM | < 0.01 µM | 7.05 µM | 0.00804 µM | < 0.01 µM | – | – | – | – | – | –
25 | N[C@@H](Cc1ccc(N(CCCl)CCCl)cc1)C(=O)O [Melphalan] | 1.03 µM | 0.425 µM | 2.2 µM | 4.08 µM | 5.8 µM | – | – | – | – | – | –
26 | Bleomycin | – | – | – | – | – | 8.42 µM | 0.108 µM | 1.07 µM | 2.92 µM | < 0.01 µM | –
27 | C#Cc1cccc(Nc2ncnc3cc(OCCOC)c(OCCOC)cc23)c1 [Erlotinib] | 5.7 µM | 5.82 µM | 6.68 µM | 2.98 µM | 1 µM | – | – | – | – | – | –
28 | O=c1[nH]c(=O)n([C@H]2C[C@H](O)[C@@H](CO)O2)cc1F [Floxuridine] | > 10 µM | > 5 µM | > 5 µM | 8.48 µM | > 10 µM | – | – | – | – | – | –
29 | C=C1C[C@@H]2[C@H](CC[C@]3(C)C(=O)CC[C@@H]23)[C@@]2(C)C=CC(=O)C=C12 [Exemestane] | > 10 µM | 8.89 µM | > 10 µM | > 10 µM | 2.08 µM | – | – | – | – | – | –
30 | N.N.[Cl][Pt][Cl] [Cisplatin] | – | – | – | – | – | > 10 µM | > 5 µM | > 5 µM | > 10 µM | > 10 µM | –
31 | O=C(CCBr)N1CCN(C(=O)CCBr)CC1 [Pipobroman] | 6.35 µM | 0.389 µM | 4.34 µM | 2.63 µM | 4.32 µM | – | – | – | – | – | –
32 | Carboplatin | – | – | – | – | – | 6.97 µM | 5.14 µM | 7.64 µM | 7.73 µM | > 10 µM | –
33 | O=P1(NCCCl)OCCCN1CCCl (centres unmarked) [Ifosfamide] | > 10 µM | > 5 µM | > 5 µM | > 10 µM | > 10 µM | – | – | – | – | – | –
34 | O=NN(CCCl)C(=O)NCCCl [Carmustine] | > 10 µM | > 5 µM | > 5 µM | > 10 µM | > 10 µM | – | – | – | – | – | –
35 | CNC(=O)c1cc(Oc2ccc(NC(=O)Nc3ccc(Cl)c(C(F)(F)F)c3)cc2)ccn1 [Sorafenib] | 9.63 µM | 3.86 µM | 5.95 µM | 5.66 µM | 1.54 µM | – | – | – | – | – | –
36 | CO[C@H]1C[C@@H]2CC[C@@H](C)[C@@](O)(O2)C(=O)C(=O)N2CCCC[C@H]2C(=O)O[C@H]([C@H](C)C[C@@H]2CC[C@@H](OCCO)[C@H](OC)C2)CC(=O)[C@H](C)/C=C(\C)[C@@H](O)[C@@H](OC)C(=O)[C@H](C)C[C@H](C)/C=C/C=C/C=C/1C [Everolimus] | > 10 µM | < 0.01 µM | < 0.01 µM | 0.834 µM | < 0.01 µM | – | – | – | – | – | –
37 | COc1cccc2c1C(=O)c1c(O)c3c(c(O)c1C2=O)C[C@@](O)(C(=O)CO)C[C@@H]3O[C@H]1C[C@H](N)[C@H](O)[C@H](C)O1 [Doxorubicin] | 7.84 µM | < 0.01 µM | 0.0585 µM | 0.12 µM | < 0.01 µM | – | – | – | – | – | –
38 | C[C@@H](CN1CC(=O)NC(=O)C1)N1CC(=O)NC(=O)C1 [Dexrazoxone] | > 10 µM | > 5 µM | > 5 µM | > 10 µM | > 10 µM | – | – | – | – | – | –
39 | Cc1ccc(-c2cc(C(F)(F)F)nn2-c2ccc(S(N)(=O)=O)cc2)cc1 [Celecoxib] | > 10 µM | > 10 µM | > 10 µM | > 10 µM | > 10 µM | – | – | – | – | – | –
40 | CC(C)(C#N)c1cc(Cn2cncn2)cc(C(C)(C)C#N)c1 [Anastrozole] | > 10 µM | > 10 µM | > 10 µM | > 10 µM | 2.08 µM | – | – | – | – | – | –
41 | Cn1nnc2c(C(N)=O)ncn2c1=O [Temozolomide] | > 10 µM | > 5 µM | > 5 µM | > 10 µM | 9.12 µM | – | – | – | – | – | –
42 | COc1c2occc2cc2ccc(=O)oc12 [Methoxsalen] | > 10 µM | > 5 µM | > 5 µM | > 10 µM | > 10 µM | – | – | – | – | – | –
43 | CC(=O)O[C@]1(C(C)=O)CC[C@H]2[C@@H]3C=C(C)C4=CC(=O)CC[C@]4(C)[C@H]3CC[C@@]21C [Megestrol acetate] | > 10 µM | > 5 µM | > 5 µM | > 10 µM | > 10 µM | – | – | – | – | – | –
44 | CC1=C(/C=C/C(C)=C/C=C/C(C)=C/C(=O)O)C(C)(C)CCC1 [Tretinoin] | > 10 µM | > 5 µM | > 5 µM | > 10 µM | > 10 µM | – | – | – | – | – | –
45 | Clc1ccc(C(c2ccccc2Cl)C(Cl)Cl)cc1 (centres unmarked) [Mitotane] | > 10 µM | > 5 µM | > 5 µM | > 10 µM | > 10 µM | – | – | – | – | – | –
46 | CC(C)Cn1cnc2c(N)nc3ccccc3c21 [Imiquimod] | > 10 µM | 2.9 µM | > 10 µM | > 10 µM | > 10 µM | – | – | – | – | – | –
